Laboratory results reported in the supplement of paper PMC7017272.
± gives the standard deviation of the averaged measurements.

Assays:
Conditions in all cases: treatment time: 3 days
[1] = system: UT-SCC-40; assay: maximal % inhibition of viability relative to DMSO; higher = stronger effect
Protocol: (§1)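 HNSCC cell lines (500 cells/well, 384-well) were cultured on plastic, on top of (2D) or embedded (3D) in Matrigel or human leiomyoma matrix Myogel (500 ug/mL; Myogel 3D mixed with rat collagen I). Cells were treated for 3 days with 5 ten-fold concentrations of each drug, and viability was read by CellTiter-Glo. Viability was normalised to DMSO and benzethonium chloride controls and fitted with the FIMM DSRT pipeline to give IC50 (nM), maximal % inhibition and DSS. Suffixes _1/_2/_3 are replicates. Only inhibition-mode (IC50) fits are kept.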

[2] = system: UT-SCC-81; assay: as above
Protocol: as §1

[3] = system: UT-SCC-14; assay: as above
Protocol: as §1

[4] = system: UT-SCC-42A; assay: as above
Protocol: as §1

[5] = system: UT-SCC-8; assay: as above
Protocol: as §1

[6] = system: UT-SCC-106A; assay: as above
Protocol: as §1

[7] = system: UT-SCC-42B; assay: as above
Protocol: as §1

[8] = system: UT-SCC-24B; assay: as above
Protocol: as §1

[9] = system: UT-SCC-44; assay: as above
Protocol: as §1

[10] = system: UT-SCC-73; assay: as above
Protocol: as §1

[11] = system: UT-SCC-28; assay: as above
Protocol: as §1

[12] = system: UT-SCC-24A; assay: drug sensitivity score (DSS); higher = more sensitive
Protocol: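 HNSCC cell lines (500 cells/well, 384-well) were cultured on plastic, on top of (2D) or embedded (3D) in Matrigel or human leiomyoma matrix Myogel (500 ug/mL; Myogel 3D mixed with rat collagen I). Cells were treated for 3 days with 5 ten-fold concentrations of each drug, and viability was read by CellTiter-Glo. Suffixes _1/_2/_3 on drug names are replicates.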

[13] = system: UT-SCC-14; assay: drug sensitivity score (DSS); higher = more sensitive; extreme values may be limits of the assay
Outline: (§2)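 Using 384-well plates, 500 cells/well of HPV-negative HNSCC cell lines were grown on plastic, on 500 µg/mL Matrigel or Myogel coatings, or embedded in Matrigel or Myogel with rat collagen I. They were treated with compounds at five 10-fold concentrations for 3 days, and luminescence from CellTiter-Glo 2.0 was normalised to vehicle (0.1% DMSO) and cell-killing control wells. IC50, maximal inhibition and drug sensitivity score were derived from percent-inhibition dose–response curves in the FIMM pipeline.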

[14] = system: UT-SCC-42A; assay: as above
Outline: as §2

[15] = system: UT-SCC-106A; assay: as above
Outline: as §2

[16] = system: UT-SCC-42B; assay: as above
Outline: as §2

[17] = system: UT-SCC-24A; assay: relative IC50 (midpoint of the fitted curve; maximal inhibition may be below 50%); higher = less potent
Protocol: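 HNSCC cell lines (500 cells/well, 384-well) were cultured on plastic, on top of (2D) or embedded (3D) in Matrigel or human leiomyoma matrix Myogel (500 ug/mL; Myogel 3D mixed with rat collagen I). Cells were treated for 3 days with 5 ten-fold concentrations of each drug, and viability was read by CellTiter-Glo. Viability was normalised to DMSO (0% inhibition) and 100 uM benzethonium chloride (100% inhibition) controls and fitted with the FIMM DSRT pipeline to give IC50 (nM), maximal % inhibition and the drug sensitivity score (DSS). Suffixes _1/_2/_3 on drug names are replicates.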

[18] = culture condition: embedded in Matrigel
[19] = culture condition: embedded in Myogel + collagen I
[20] = culture condition: on top of Matrigel
[21] = culture condition: on top of Myogel
[22] = culture condition: plastic 2D (no matrix)

- relative IC50 [17, 19]: 0.761 nM
- relative IC50 [17, 21]: 10.4 nM
Compound: CO[C@H]1C[C@@H]2CC[C@@H](C)[C@@](O)(O2)C(=O)C(=O)N2CCCC[C@H]2C(=O)O[C@H]([C@H](C)C[C@@H]2CC[C@@H](OCCO)[C@H](OC)C2)CC(=O)[C@H](C)/C=C(\C)[C@@H](O)[C@@H](OC)C(=O)[C@H](C)C[C@H](C)/C=C/C=C/C=C/1C [Everolimus]
- maximal % inhibition of viability [1, 18]: 27.2 ± 25%
- maximal % inhibition of viability [1, 19]: 33.3 ± 4.4%
- maximal % inhibition of viability [1, 20]: 23.3 ± 5.5%
- maximal % inhibition of viability [1, 21]: 20.2 ± 10%
- maximal % inhibition of viability [1, 22]: 21.6 ± 8.3%
- maximal % inhibition of viability [2, 18]: 43.5 ± 14%
- maximal % inhibition of viability [2, 19]: 54.1 ± 1.6%
- maximal % inhibition of viability [2, 20]: 39.4 ± 3.5%
- maximal % inhibition of viability [2, 21]: 53.2 ± 3.5%
- maximal % inhibition of viability [2, 22]: 46.8 ± 3.7%
- maximal % inhibition of viability [3, 18]: 58 ± 10%
- maximal % inhibition of viability [3, 19]: 50.9 ± 5.5%
- maximal % inhibition of viability [3, 20]: 47.6 ± 5.8%
- maximal % inhibition of viability [3, 21]: 42.6 ± 0.36%
- maximal % inhibition of viability [3, 22]: 46.4 ± 8.9%
- maximal % inhibition of viability [4, 18]: 17.3 ± 9.2%
- maximal % inhibition of viability [4, 19]: 32.2 ± 2.5%
- maximal % inhibition of viability [4, 20]: 34.3 ± 6%
- maximal % inhibition of viability [4, 21]: 33.1 ± 5%
- maximal % inhibition of viability [4, 22]: 29.9 ± 2.9%
- maximal % inhibition of viability [5, 18]: 39.1 ± 2.8%
- maximal % inhibition of viability [5, 19]: 36.4 ± 12%
- maximal % inhibition of viability [5, 20]: 36.6 ± 9.4%
- maximal % inhibition of viability [5, 21]: 46.9 ± 14%
- maximal % inhibition of viability [5, 22]: 44.7 ± 11%
- maximal % inhibition of viability [6, 18]: 30.8 ± 12%
- maximal % inhibition of viability [6, 19]: 20.6 ± 4.6%
- maximal % inhibition of viability [6, 20]: 40.7 ± 13%
- maximal % inhibition of viability [6, 21]: 21.3 ± 5%
- maximal % inhibition of viability [6, 22]: 50.1 ± 11%
- maximal % inhibition of viability [7, 18]: 14.8 ± 5.8%
- maximal % inhibition of viability [7, 20]: 14.4 ± 2.9%
- maximal % inhibition of viability [7, 21]: 10.9 ± 2.4%
- maximal % inhibition of viability [7, 22]: 12.6 ± 3.1%
- maximal % inhibition of viability [8, 18]: 28.7 ± 6.1%
- maximal % inhibition of viability [8, 19]: 44.8 ± 5.3%
- maximal % inhibition of viability [8, 20]: 18.1 ± 0.91%
- maximal % inhibition of viability [8, 21]: 30.1 ± 8.6%
- maximal % inhibition of viability [8, 22]: 24.9 ± 3%
- maximal % inhibition of viability [9, 18]: 30.9 ± 17%
- maximal % inhibition of viability [9, 19]: 45 ± 2.1%
- maximal % inhibition of viability [9, 20]: 34 ± 2.7%
- maximal % inhibition of viability [9, 21]: 37.7 ± 4.2%
- maximal % inhibition of viability [9, 22]: 33.1 ± 5.5%
- maximal % inhibition of viability [10, 18]: 22.8 ± 3.8%
- maximal % inhibition of viability [10, 19]: 46.1 ± 20%
- maximal % inhibition of viability [10, 20]: 26 ± 4.4%
- maximal % inhibition of viability [10, 21]: 34.8 ± 1.5%
- maximal % inhibition of viability [10, 22]: 28 ± 2.5%
- maximal % inhibition of viability [11, 18]: 28.6 ± 11%
- maximal % inhibition of viability [11, 19]: 27.7 ± 7.6%
- maximal % inhibition of viability [11, 20]: 28.2 ± 6.3%
- maximal % inhibition of viability [11, 22]: 28.1 ± 8.8%
- drug sensitivity score [12, 18]: 3.6 ± 6.2 DSS
- drug sensitivity score [12, 19]: 6.43 ± 3 DSS
- drug sensitivity score [12, 20]: 2.93 ± 2.3 DSS
- drug sensitivity score [12, 21]: 2.57 ± 0.21 DSS
- drug sensitivity score [12, 22]: 2.57 ± 0.25 DSS
- drug sensitivity score [13, 18]: 8.37 ± 3.1 DSS
- drug sensitivity score [13, 19]: 10.2 ± 3.4 DSS
- drug sensitivity score [13, 20]: 5.67 ± 2.2 DSS
- drug sensitivity score [13, 21]: 7.77 ± 2.7 DSS
- drug sensitivity score [13, 22]: 7.63 ± 2.4 DSS
- drug sensitivity score [14, 18]: 0.933 ± 1.1 DSS
- drug sensitivity score [14, 19]: 3.87 ± 0.76 DSS
- drug sensitivity score [14, 20]: 2.6 ± 0.4 DSS
- drug sensitivity score [14, 21]: 3.27 ± 0.83 DSS
- drug sensitivity score [14, 22]: 2.07 ± 0.91 DSS
- drug sensitivity score [15, 18]: 1.27 ± 0.31 DSS
- drug sensitivity score [15, 19]: 2.77 ± 0.81 DSS
- drug sensitivity score [15, 20]: 1.53 ± 1.4 DSS
- drug sensitivity score [15, 21]: 1.33 ± 0.6 DSS
- drug sensitivity score [15, 22]: 7.3 ± 6 DSS
- drug sensitivity score [16, 18]: 0 DSS
- drug sensitivity score [16, 20]: 0.733 ± 0.67 DSS
- drug sensitivity score [16, 21]: 0.433 ± 0.38 DSS
- drug sensitivity score [16, 22]: 0.133 ± 0.12 DSS
